Laboratory results published in ChEMBL document CHEMBL2401704, “Inhibition of rhodesain as a novel therapeutic modality for human African trypanosomiasis” (J Med Chem, 2013).
Each block holds one molecule with its values, some of them ahead of it. Residues, ends and D or L forms follow the SMILES beside them. *: point of attachment. Cbz = O=C(OCc1ccccc1)*; CHN2 = [N-]=[N+]=C*

How the values were obtained:
[1] = Inhibition of Trypanosoma brucei rhodesain
Cruzipain = Cruzipain (Trypanosoma cruzi, UniProt P25779); test: Inhibition of Trypanosoma cruzi cruzain
[2] = Inhibition of Trypanosoma brucei recombinant rhodesain
[3] = test system: Trypanosoma brucei brucei; test: Antitrypanosomal activity against blood stream form of Trypanosoma brucei brucei; assay type: functional, organism-based; conditions: for EC50: read-out: ED50 (the source's name)
Trypsin = Trypsin (Homo sapiens, UniProt P07477+P07478+P35030); test: Inhibition of trypsin (unknown origin); assay type: protein assay
[4] = Inhibition of cathepsin B (unknown origin); set-up: species or system Homo sapiens
Papain = target: T1, Papain (Carica papaya, UniProt P00784); test: Inhibition of papaya papain
T1 sequence (P00784 whole entry): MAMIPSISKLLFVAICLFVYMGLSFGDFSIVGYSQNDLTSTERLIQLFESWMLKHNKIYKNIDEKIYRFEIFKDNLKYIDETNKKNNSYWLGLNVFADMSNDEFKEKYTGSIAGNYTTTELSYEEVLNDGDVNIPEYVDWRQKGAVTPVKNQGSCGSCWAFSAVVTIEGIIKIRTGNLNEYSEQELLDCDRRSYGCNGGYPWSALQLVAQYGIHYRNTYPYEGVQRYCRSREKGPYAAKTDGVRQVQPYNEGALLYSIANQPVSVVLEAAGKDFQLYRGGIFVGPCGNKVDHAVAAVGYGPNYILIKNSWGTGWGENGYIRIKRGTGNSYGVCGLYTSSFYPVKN

[5] = test system: Trypanosoma brucei rhodesiense; test: Antitrypanosomal activity against Trypanosoma brucei rhodesiense; assay type: functional, organism-based
[6] = test system: Trypanosoma brucei brucei; test: Antitrypanosomal activity against procyclic form of Trypanosoma brucei brucei; assay type: functional; conditions: read-out: ED50 (the source's name)
Trypanosoma brucei [7] = test: Antitrypanosomal activity against Trypanosoma brucei; assay type: functional, organism-based
L6 = test: Cytotoxicity against rat L6 cells; assay type: cell-based
Plasmodium falciparum = test: Antiprotozoal activity against Plasmodium falciparum; assay type: functional, organism-based
[8] = Inhibition of Plasmodium falciparum Falcipain 2
Rhodesain = Rhodesain (Trypanosoma brucei rhodesiense, UniProt Q95PM0); test: Inhibition of Trypanosoma brucei rhodesiense rhodesain
Trypanosoma brucei [9] = test: Inhibition of Trypanosoma brucei rhodesain assessed as second order rate constant
[10] = test system: Trypanosoma brucei brucei; test: Antitrypanosomal activity against Trypanosoma brucei brucei; assay type: functional, organism-based

Chain of Cruzipain (P25779 whole entry): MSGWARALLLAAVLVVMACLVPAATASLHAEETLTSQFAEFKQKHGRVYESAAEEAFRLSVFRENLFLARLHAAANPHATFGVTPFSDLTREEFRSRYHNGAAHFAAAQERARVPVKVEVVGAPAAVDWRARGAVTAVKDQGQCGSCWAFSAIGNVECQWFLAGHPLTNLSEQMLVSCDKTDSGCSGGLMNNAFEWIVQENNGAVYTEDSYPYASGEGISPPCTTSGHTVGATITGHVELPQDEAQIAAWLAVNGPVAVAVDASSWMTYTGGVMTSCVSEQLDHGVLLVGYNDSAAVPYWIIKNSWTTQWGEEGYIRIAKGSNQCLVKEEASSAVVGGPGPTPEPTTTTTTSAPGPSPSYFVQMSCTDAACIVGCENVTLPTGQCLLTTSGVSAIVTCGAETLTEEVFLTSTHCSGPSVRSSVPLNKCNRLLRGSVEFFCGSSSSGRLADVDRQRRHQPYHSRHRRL
Chain of Rhodesain (Q95PM0 whole entry): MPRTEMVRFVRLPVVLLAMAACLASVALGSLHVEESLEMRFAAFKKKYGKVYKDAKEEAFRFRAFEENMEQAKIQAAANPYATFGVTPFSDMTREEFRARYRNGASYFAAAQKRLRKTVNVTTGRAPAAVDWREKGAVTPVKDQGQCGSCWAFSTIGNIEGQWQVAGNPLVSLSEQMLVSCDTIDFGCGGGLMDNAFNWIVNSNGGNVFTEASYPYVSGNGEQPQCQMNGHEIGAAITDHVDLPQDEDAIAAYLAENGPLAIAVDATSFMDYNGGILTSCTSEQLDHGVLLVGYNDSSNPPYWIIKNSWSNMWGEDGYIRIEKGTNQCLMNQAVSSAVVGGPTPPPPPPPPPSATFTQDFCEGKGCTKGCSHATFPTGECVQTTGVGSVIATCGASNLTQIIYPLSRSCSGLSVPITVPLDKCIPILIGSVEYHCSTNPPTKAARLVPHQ

IC50 (Cruzipain): < 10 µM
Compound: CSc1cccc(NC(=O)Nc2sc3ccccc3c2Cl)c1
IC50 [1]: < 10 µM

Compound: CN(C(=O)[C@H](Cc1ccccc1)NC(=O)c1ccc2c(c1)OCCO2)N(C#N)Cc1ccccc1
IC50 [2]: 510 pM

IC50 [3]: 4.8 µM
Compound: [N-]=[N+]=CC(=O)[C@H](Cc1ccccc1)NC(=O)[C@H](Cc1ccccc1)NC(=O)OCc1ccccc1 (Cbz-Phe-Phe-CHN2)

IC50 (Trypsin): > 50 µM | IC50 [4]: 11 µM | IC50 (Papain): > 50 µM | IC50 (Cruzipain): 6.9 µM
Compound: CS(=O)(=O)c1sc(C(=O)NC(=S)Nc2ccc(OC(F)(F)F)cc2)c2ccccc12
IC50 [1]: 4.2 µM

IC50 [5]: 0.13 µM
Compound: CCCC/C(=N\NC(N)=S)c1ccc(Cl)c(Cl)c1

IC50 (Cruzipain): < 10 µM
Compound: O=C(NC(=S)Nc1ccc(O)cc1)c1sc2ccccc2c1Cl
IC50 [1]: < 10 µM

EC50 [6]: 0.7 µM | EC50 [3]: 1.4 µM
Compound: CCCCCN(C#N)N(C)C(=O)[C@H](Cc1ccccc1)NC(=O)OCc1ccccc1
IC50 [2]: 60 pM

EC50 [6]: 0.4 µM | EC50 [3]: 1.1 µM
Compound: CN(C(=O)[C@H](Cc1ccccc1)NC(=O)OCc1ccccc1)N(C#N)Cc1ccccc1
IC50 [2]: 190 pM

Compound: O=C1C(=O)N(S(=O)(=O)c2ccccc2)c2ccccc21
IC50 [1]: 15 µM

IC50 (Trypsin): > 50 µM | IC50 [4]: 10.8 µM | IC50 (Papain): > 50 µM | IC50 (Cruzipain): 1.2 µM
Compound: O=C(Nc1ccc(Cl)cc1)Nc1csc(-c2ccc(C(F)(F)F)cc2)n1
IC50 [1]: 2 µM

IC50 (Trypanosoma brucei [7]): 4.5 µM
Compound: C/C(=N\N=C(\N)S)c1ccc(Nc2ccccc2)cc1
IC50 [1]: 18 µM

Compound: CCCCCN(C#N)N(C)C(=O)[C@H](Cc1ccccc1)NC(=O)c1ccc2c(c1)OCCO2
IC50 [2]: 1340 pM

Compound: CN(C(=O)[C@H](Cc1ccccc1)NC(=O)c1ccc2c(c1)OCCO2)N(C#N)CCCc1ccccc1
IC50 [2]: 240 pM

Compound: N#Cc1nc(N2CCOCC2)nc(N(c2ccccc2)c2ccccc2)n1
IC50 (L6): 22 µM | IC50 (Plasmodium falciparum): > 5 µM | Ki [8]: 0.042 µM | IC50 [5]: 18.9 µM | Ki (Rhodesain): 0.036 µM

Compound: CC(C)C[C@H](NC(=O)c1ccc2c(c1)OCCO2)C(=O)N(C)N(C#N)Cc1ccccc1
IC50 [2]: 330 pM

Compound: CN(C#N)N(C)C(=O)[C@H](Cc1ccccc1)NC(=O)OCc1ccccc1
IC50 [2]: 400 pM

K (Trypanosoma brucei [9]): 2.24 ×10⁶ /M/min
Compound: O=C(N[C@@H](Cc1ccccc1)C(=O)N[C@H](/C=C/S(=O)(=O)Nc1ccccc1)CCc1ccccc1)OCc1ccccc1

IC50 [10]: 3.21 µM | Ki [1]: 5.29 µM
Compound: CC(C)(C)OC(=O)Nc1cccc(CNC(=O)c2ccc(C(=O)NC(=N)NC(=O)OCc3ccccc3)o2)c1
Ki [8]: 3.93 µM

IC50 [3]: 6.1 µM
Compound: C[C@H](NC(=O)[C@H](Cc1ccccc1)NC(=O)OCc1ccccc1)C(=O)C=[N+]=[N-]

IC50 (Trypanosoma brucei [7]): 2 µM
Compound: C/C(=N\N=C(/S)N1CCN(C)CC1)c1cccc(Br)c1
IC50 [1]: 4 µM

Compound: O=C1C(=O)N(C(=O)OCc2ccccc2)c2ccccc21
IC50 [1]: 30 µM

Compound: CCCCCN(C#N)N(C)C(=O)[C@@H](NC(=O)c1ccc2c(c1)OCCO2)C(C)C
IC50 [2]: 54600 pM

IC50 (Cruzipain): < 10 µM
Compound: CCCc1c(NC(=O)Nc2ccc(OC(F)(F)F)cc2)cnn1-c1ccc(Cl)cc1
IC50 [1]: < 10 µM

Compound: CN(C#N)N(C)C(=O)[C@H](Cc1ccccc1)NC(=O)c1ccc2c(c1)OCCO2
IC50 [2]: 140 pM

IC50 [10]: 2.32 µM | Ki [1]: 0.1 µM
Compound: N=C(NC(=O)OCc1ccccc1)NC(=O)c1ccc(C(=O)NCc2cccc(NC(=O)OCc3ccccc3)c2)[nH]1
Ki [8]: 1.62 µM

Compound: CCCC1CCC(N(Cc2ccc3c(c2)OCO3)c2nc(C#N)nc(N3CCOCC3)n2)CC1 (stereo not given)
IC50 (L6): 5.9 µM | IC50 (Plasmodium falciparum): 2.4 µM | Ki [8]: 1.03 µM | IC50 [5]: 31.2 µM | Ki (Rhodesain): 0.002 µM

IC50 (Trypanosoma brucei [7]): 10 µM
Compound: C/C(=N\N=C(\N)S)c1ccc(-c2ccccc2)cc1
IC50 [1]: 0.09 µM

IC50 (Plasmodium falciparum): 1.1 µM | IC50 [5]: 27.5 µM
Compound: N#Cc1nc(N2CCOCC2)nc(N(Cc2cccc(C(F)(F)F)c2)C2C3CC4CC(C3)CC2C4)n1 (stereo not given)
IC50 (L6): 23.2 µM | Ki [8]: 12.9 µM

IC50 (Trypanosoma brucei [7]): 6 µM
Compound: C/C(=N\N=C(\N)S)c1cccc(Oc2ccccc2)c1
IC50 [1]: 0.55 µM

Compound: N#Cc1nc(N2CCOCC2)nc(N(Cc2ccc3c(c2)OCO3)C2CCCCC2)n1
IC50 (L6): 11.1 µM | IC50 (Plasmodium falciparum): 2.9 µM | Ki [8]: 0.02 µM | IC50 [5]: 30.1 µM | Ki (Rhodesain): 0.008 µM

K (Trypanosoma brucei [9]): 5.35 ×10⁷ /M/min
Compound: O=C(N[C@@H](Cc1ccccc1)C(=O)N[C@H](/C=C/S(=O)(=O)Cc1ccccc1)CCc1ccccc1)OCc1ccccc1

IC50 (Trypanosoma brucei [7]): 3 µM
Compound: C/C(=N\N=C(/S)N1CCCCC1)c1cccc(Br)c1
IC50 [1]: 4 µM

Compound: CC(C)C[C@H](NC(=O)c1ccc2c(c1)OCCO2)C(=O)N(C)N(C)C#N
IC50 [2]: 60 pM

IC50 (Trypanosoma brucei [7]): 3 µM
Compound: CCN(CC)/C(S)=N/N=C(\C)c1cccc(Br)c1
IC50 [1]: 1.8 µM

IC50 [3]: 21 µM
Compound: C[C@H](NC(=O)[C@H](Cc1ccccc1)NC(=O)OCc1ccccc1)C(=O)CCl
